Measurements: paper PMC10060354, “Discovery of a small molecule ligand of FRS2 that inhibits invasion and tumor growth” (Cellular Oncology, 2022)
Values joined by “and” are separate entries in the source; they are usually repeats but may differ in a detail not shown here. Identical values can stand only once. Like-named read-outs stand apart in the source and are kept apart here.

Tests used:
DAOY cells [1] = experiment: SIA, EGF-induced cell invasion; assay type: cell-based, human; conditions: 10 µM
Method: (§1) 1000—2500 cells/well in 100 μl were seeded in 96 well Corning® Spheroid microplate (CLS4520, Sigma-Aldrich) or in cell-repellent 96 well microplate (650,790, Greiner Bio-one). SIA and analysis was performed as described before. In brief: After spheroid formation (24 – 72 h after seeding), 70 µl medium was removed and replaced with the collagen mixture (2.5 mg/ml Pure Col Collagen I (Advanced Biomatrix)), DMEM 1x (from 10 × stock, Sigma, D2429) and 0.4% Sodium bicarbonate (Sigma, S8761)), resulting in a final collagen concentration of 1.75 mg/ml. Embedded spheroids were stimulated with bFGF (100 ng/ml if not otherwise stated), HGF (30 ng /ml) or EGF (20 ng/ml) and distance of invaded cells quantified 24 – 48 h after embedding. Compounds and BGJ398 were added in Dimethylsulfoxid (DMSO) and corresponding DMSO concentrations were used in control samples.

GB1-FRS2_PTB:FGFR_PEP = target: T1, GB1-FRS2_PTB:FGFR_PEP (Homo sapiens, UniProt Q8WU20); experiment: nanoDSF competition assay with the FGFR peptide; assay type: binding; conditions: PTB domain:FGFR peptide 1:5; 500 μM compound
T1 construct: FRS2-PTB 11-140aa; 6xHis (N); made in house; host or cells: E. coli BL21 (DE3) for the protein
T1 sequence (Q8WU20 11-140): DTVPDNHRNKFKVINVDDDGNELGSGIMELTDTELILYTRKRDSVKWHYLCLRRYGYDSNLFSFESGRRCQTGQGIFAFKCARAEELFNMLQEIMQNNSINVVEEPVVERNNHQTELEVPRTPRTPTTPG
Method: (§2) Purified FRS2_PTB or GB1_FRS2_PTB protein tagged with 6 × Histidine residues and the B1 immunoglobulin binding domain of the streptococcal protein G (GB1) were diluted in the protein buffer (100 mM sodium phosphate, 50 mM NaCl, 0.5 mM EDTA, 50 mM arginine, 1 mM TCEP, pH 7.0) to 30 μM, GB-1 to 40 μM. FGFR_PEP, compounds or paracetamol (PARA) as negative control were dissolved at 1 mM in the protein buffer supplemented with 10% DMSO. Compound and protein were mixed at 1:1 volume ratio yielding a final concentration of 15 μM and 20 μM for FRS2_PTB/GB1_FRS2_PTB and GB1, respectively, as well as 500 μM for FGFR_PEP or compounds. The mixture was incubated for 15 min. Each compound was measured in triplicates. Protein controls were measured in six replicates in the beginning. The quality of the screen was assessed by the Z-factor. nanoDSF validation studies were performed on a Prometheus® system in high sensitivity capillaries. Samples were heated with 1 °C/min from 20 to 95 °C. Each compound was measured in triplicates. GB1-FRS2_PTB and GB1 were diluted in the protein buffer (100 mM sodium phosphate, 50 mM NaCl, 0.5 mM EDTA, 50 mM arginine, 1 mM TCEP, pH 7.0) to 30 μM. Compounds 3.3, 3.4, 3.18 as well as the 3.18 analogues were dissolved in 100% DMSO at 50 or 100 mM and further diluted to 1 mM with a final […]. FGFR_PEP was dissolved at 1 mM in the protein buffer supplemented with 10% DMSO. Compound and protein were mixed at 1:1 volume ratio yielding final concentrations of 15 μM protein and 500 μM for the compounds. FGFR_PEP was measured against both GB1-FRS2_PTB and GB1, all other compounds only against GB1-FRS2_PTB. The mixture was incubated for 15 min before measurement. The data was analyzed for both the ratio of signals at 330 and 350 nm and at 350 nm alone. For the competition assays, the PTB domain and the FGFR peptide were mixed at a 1:5 ratio, and ligand competition was assayed in the presence of 500 μM compound.

[2] = Solubility at the concentration required for the biophysical assays; assay type: physicochemical; conditions: 5% DMSO
DAOY cells [3] = experiment: Spheroid invasion assay (SIA), bFGF-induced collagen I invasion; assay type: cell-based, human; conditions: DAOY cells, n = 3 technical replicas, read-out: EC50 for the inhibition of bFGF-induced collagen I invasion
Method: as §1

FRS2_PTB = target: T2, FRS2_PTB (Homo sapiens, UniProt Q8WU20); experiment: nano differential scanning fluorimetry (nanoDSF); assay type: binding; conditions: 500 μM ligand
T2 construct: FRS2-PTB 11-140aa; 6xHis; made in house; host or cells: E. coli BL21 (DE3)
T2 sequence (Q8WU20 11-140): T1 sequence (Q8WU20 11-140)
Method: Assay establishment and pilot nanoDSF experiments were performed with a Tycho® system. Each experiment was performed by mixing the protein and ligand of interest at a 1:1 ratio and subsequent incubation for 15–30 min at room temperature. Controls of protein alone and ligand alone in identical buffer compositions as for the complex were measured accordingly. The temperature gradient ranged from 35 to 95 °C, and the heating rate was 30 °C/min. Inflection temperatures TI were calculated from the first derivative of the spectra obtained at the ratio of the signals at 350 nm to those at 330 nm. ΔTI of a complex was calculated as following: ΔTI,complex = TI,complex – TI,protein.
The in-built software version 1.1.5.668 (NanoTemper Technologies, Munich, Germany) and Microsoft Office Excel 365 (Microsoft Corp., Seattle, USA) was used for data analysis. Data was plotted with GraphPad Prism vers. 8.3.0 (GraphPad Software, San Diego, USA).
as §2, with “For the competition assays, the PTB domain and the FGFR peptide were mixed at a 1:5 ratio, and ligand competition was assayed in the presence of 500 μM compound.” left out

GB1-FRS2-PTB = target: T3, GB1-FRS2-PTB (Homo sapiens, UniProt Q8WU20); experiment: Microscale thermophoresis (MST); assay type: binding
T3 construct: FRS2-PTB 11-140aa; 6xHis (N); made in house; host or cells: E. coli BL21 (DE3)
T3 sequence (Q8WU20 11-140): T1 sequence (Q8WU20 11-140)
Method: Protein labeling for MST was performed with the 2nd Generation BLUE-NHS dye. GB1-FRS2_PTB- was labelled at 20 μM with 60 μM dye and incubated for 30 min in the dark at room temperature. The labelling was performed in the protein buffer without arginine supplementation. It was rebuffered to protein buffer (100 mM sodium phosphate, 50 mM NaCl, 0.5 mM EDTA, 50 mM arginine, 1 mM TCEP, pH 7.0). The dye was subsequently removed by gravitational flow chromatography and the protein concentration determined by UV-spectroscopy. The assay was established with the FGFR_PEP. […] A total volume of 10 μl of 50 nM labelled protein was added to 10 μl of the peptide dilution series for a final labelled protein concentration of 25 nM. The samples were incubated for 15 min at RT. […] Temperature was set to 25 °C. Each measurement was repeated twice. The interaction was measured in duplicates for the non-DMSO-supplemented buffer and in triplicates for DMSO-supplemented buffer. […] The samples were incubated for 15 min, and MST assessed as described above. Each measurement was repeated twice. The interaction was measured in two independent duplicates. […] The mixture was then measured for their initial fluorescence once. MST-experiments were performed with MO.Control vers. 1.6 (NanoTemper Technologies, Munich, Germany) and data analyzed with MO.Analysis vers. 2.3 (NanoTemper Technologies, Munich, Germany). Data was plotted with GraphPad Prism vers. 8.3.0 (GraphPad Software, San Diego, USA).

nanoDSF competition with FGFR peptide (result in words) (GB1-FRS2_PTB:FGFR_PEP) | solubility for biophysical assays (result in words) [2] | EC50 (DAOY cells [3]) | EC50 (DAOY cells [3]; Homo sapiens, Daoy) | nanoDSF shift of the inflection point of the melting curve (ΔTm) (FRS2_PTB) | Kd (GB1-FRS2-PTB; GB1-FRS2_PTB, read-out: KD, initial fluorescence change analysis) | binding by MST trace analysis (result in words) (GB1-FRS2-PTB; signal:noise ratio > 5 counts as binding) | Structure (SMILES) | effect on EGF-induced cell invasion (result in words) (DAOY cells [1])
negative shift in compound-mixed samples | soluble in 5% DMSO | – | – | – | – | – | O=[N+]([O-])c1c(Cl)cc(O)c2c1C1C=CCC1C(c1ccccc1)N2 (stereo not drawn) [Compound 9] | only moderately reduced
negative shift in compound-mixed samples | – | 1.29 µM | 1.29 µM | < -2 °C | 110 µM and 140 µM and 110 to 140 µM | no binding was detected | O=[N+]([O-])c1c(Cl)cc(O)c2c1C1C=CCC1C(C1CC=CCC1)N2 (stereo not drawn) [Compound 3.18] | only moderately reduced
negative shift in compound-mixed samples | soluble in 5% DMSO | – | – | – | – | – | O=[N+]([O-])c1c(Cl)cc(O)c2c1C1C=CCC1C(c1ccc(Br)cc1)N2 (stereo not drawn) [Compound 2] | –
